Legend:
Assay type in all cases: physicochemical
[1] = Example 3: aqueous dissolution of powdered branched-chain amino acid blend (first material) with varying myo-inositol, LC/UV of filtrate; conditions: for Dissolved amino acid (g per 16 oz.): 7.00 g BCAA blend, water 21° C., 400 rpm
Procedure: (§1) Example 3 evaluates the effect that varying the myo-inositol concentration has on the aqueous dissolution of branched-chain amino acids. Two branched-chain amino acid materials were tested. The first material tested was 7.00 grams of a powdered branched-chain amino acid blend comprising 50 wt. % leucine, 25 wt. % isoleucine, and 25 wt. % valine. The second material tested was 3.5 grams of powdered leucine. Each material was tested with varying levels of powdered myo-inositol, expressed as a percentage of 17.6 grams (e.g., a serving of powdered nutritional product). For example, 1% myo-inositol is 0.176 grams, 2% myo-inositol is 0.352 grams, and so forth. The branched-chain amino acid material and the specified amount of myo-inositol were added to 16 fluid ounces of Milli-Q Plus water at 21° C. and stirred at 400 rpm. After 30 seconds and 60 seconds of stirring, an aliquot was obtained and filtered through a 0.45 μm PTFE membrane (Pall Life Sciences, Acrodisc CR 25, P/N 4501), and the filtrate of the first material was tested for valine, isoleucine, and leucine using the LC/UV method described below, while the filtrate of the second material was tested for leucine using the same LC/UV method. The test results for the first material tested are shown in Table 3, while the test results for the second material tested are shown in Table 4.
(§2) The LC/UV system used to perform the tests comprised the following: 1) Column: YMC ODS-AQ, 4.6 x 250 mm, 5 μm, Waters P/N AQ12S052546WT; 2) Mobile Phase: Milli-Q Plus water; 3) Flow Rate: 0.4 mL/minute; 4) Temperature: 40° C.; 5) Detection: UV at 192 nm; 6) Injection: 2 μL of filtrate; and 7) Run Time: 20 minutes.

[2] = Example 3: aqueous dissolution of powdered leucine only (second material) with varying myo-inositol, LC/UV of filtrate; conditions: for Dissolved Leucine (g per 16 oz.): 3.5 g leucine only, water 21° C., 400 rpm
Procedure: as §1, §2

[3] = Example 4: aqueous dissolution of branched-chain amino acids in a powdered nutritional product with varying myo-inositol, LC/UV of filtrate; conditions: 17.6 g powdered nutritional product, water 21° C., 400 rpm
Procedure: as §2
Example 4 evaluates the effect that myo-inositol concentration has on the aqueous dissolution of branched-chain amino acids (valine, isoleucine, and leucine) in a powdered nutritional product. One serving (17.6 grams) of the powdered nutritional product contains 7.00 grams of a branched-chain amino acid blend comprising 50 wt. % leucine, 25 wt. % isoleucine, and 25 wt. % valine. A serving of the powdered nutritional product with a specified amount of myo-inositol was added to 16 fluid ounces of Milli-Q Plus water at 21° C. and stirred at 400 rpm. At each specified time point, an aliquot was obtained and filtered through a 0.45 μm PTFE membrane (Pall Life Sciences, Acrodisc CR 25, P/N 4501), and the filtrate was tested for valine, isoleucine, and leucine using the LC/UV method as described in Example 3.

[4] = Example 5: effect of inositol isomers on dissolution of L-leucine, LC/UV of filtrate; conditions: 3.50 g L-leucine without inositol isomer (None, n = 3), water 21° C., 400 rpm
Procedure: as §2, with “[…];” for “P/N AQ12S052546WT;”

[5] = myo-inositol 0% of 17.6 g, 30 seconds
[6] = myo-inositol 0% of 17.6 g, 60 seconds
[7] = myo-inositol 1% of 17.6 g, 30 seconds
[8] = myo-inositol 1% of 17.6 g, 60 seconds
[9] = myo-inositol 2% of 17.6 g, 30 seconds
[10] = myo-inositol 2% of 17.6 g, 60 seconds
[11] = myo-inositol 4% of 17.6 g, 30 seconds
[12] = myo-inositol 4% of 17.6 g, 60 seconds
[13] = myo-inositol 8% of 17.6 g, 30 seconds
[14] = myo-inositol 8% of 17.6 g, 60 seconds

Dissolved amino acid (g per 16 oz.) [1, 5]: 0.596 g per 16 oz.
Dissolved amino acid (g per 16 oz.) [1, 6]: 1.21 g per 16 oz.
Dissolved amino acid (g per 16 oz.) [1, 7]: 0.860 g per 16 oz.
Dissolved amino acid (g per 16 oz.) [1, 8]: 1.51 g per 16 oz.
Dissolved amino acid (g per 16 oz.) [1, 9]: 0.747 g per 16 oz.
Dissolved amino acid (g per 16 oz.) [1, 10]: 1.53 g per 16 oz.
Dissolved amino acid (g per 16 oz.) [1, 11]: 0.729 g per 16 oz.
Dissolved amino acid (g per 16 oz.) [1, 12]: 1.36 g per 16 oz.
Dissolved amino acid (g per 16 oz.) [1, 13]: 1.09 g per 16 oz.
Dissolved amino acid (g per 16 oz.) [1, 14]: 1.94 g per 16 oz.
dissolution rate of leucine in first material compared with second material (FIG. 4) ([1]; 30 second time point, all myo-inositol concentrations): faster
Dissolved Leucine (g per 16 oz.) [2, 5]: 0.353 g per 16 oz.
Dissolved Leucine (g per 16 oz.) [2, 6]: 0.703 g per 16 oz.
Dissolved Leucine (g per 16 oz.) [2, 7]: 0.480 g per 16 oz.
Dissolved Leucine (g per 16 oz.) [2, 8]: 1.04 g per 16 oz.
Dissolved Leucine (g per 16 oz.) [2, 9]: 0.616 g per 16 oz.
Dissolved Leucine (g per 16 oz.) [2, 10]: 1.33 g per 16 oz.
Dissolved Leucine (g per 16 oz.) [2, 11]: 0.549 g per 16 oz.
Dissolved Leucine (g per 16 oz.) [2, 12]: 1.09 g per 16 oz.
Dissolved Leucine (g per 16 oz.) [2, 13]: 0.844 g per 16 oz.
Dissolved Leucine (g per 16 oz.) [2, 14]: 1.62 g per 16 oz.
slope of plot of leucine dissolution vs myo-inositol on a molar basis (FIG. 5) ([2]; second material, myo-inositol 0%, 1%, 2%, 30-second plot): 1.0816
Dissolved amino acid (g per 16 oz.) ([3]; myo-inositol 0%, 30 seconds): 1.73 g per 16 oz.
Dissolved amino acid (g per 16 oz.) ([3]; myo-inositol 0%, 60 seconds): 2.42 g per 16 oz.
Dissolved amino acid (g per 16 oz.) ([3]; myo-inositol 0%, 90 seconds): 2.67 g per 16 oz.
Dissolved amino acid (g per 16 oz.) ([3]; myo-inositol 0%, 240 seconds): 3.22 g per 16 oz.
Dissolved amino acid (g per 16 oz.) ([3]; myo-inositol 0%, 600 seconds): 3.44 g per 16 oz.
Dissolved amino acid (g per 16 oz.) ([3]; myo-inositol 1%, 30 seconds): 1.95 g per 16 oz.
Dissolved amino acid (g per 16 oz.) ([3]; myo-inositol 1%, 60 seconds): 2.51 g per 16 oz.
Dissolved amino acid (g per 16 oz.) ([3]; myo-inositol 1%, 90 seconds): 2.76 g per 16 oz.
Dissolved amino acid (g per 16 oz.) ([3]; myo-inositol 1%, 240 seconds): 3.27 g per 16 oz.
Dissolved amino acid (g per 16 oz.) ([3]; myo-inositol 1%, 600 seconds): 3.40 g per 16 oz.
Dissolved amino acid (g per 16 oz.) ([3]; myo-inositol 2%, 30 seconds): 1.91 g per 16 oz.
Dissolved amino acid (g per 16 oz.) ([3]; myo-inositol 2%, 60 seconds): 2.36 g per 16 oz.
Dissolved amino acid (g per 16 oz.) ([3]; myo-inositol 2%, 90 seconds): 2.67 g per 16 oz.
Dissolved amino acid (g per 16 oz.) ([3]; myo-inositol 2%, 240 seconds): 3.25 g per 16 oz.
Dissolved amino acid (g per 16 oz.) ([3]; myo-inositol 2%, 600 seconds): 3.45 g per 16 oz.
Dissolved amino acid (g per 16 oz.) ([3]; myo-inositol 4%, 30 seconds): 2.02 g per 16 oz.
Dissolved amino acid (g per 16 oz.) ([3]; myo-inositol 4%, 60 seconds): 2.47 g per 16 oz.
Dissolved amino acid (g per 16 oz.) ([3]; myo-inositol 4%, 90 seconds): 2.72 g per 16 oz.
Dissolved amino acid (g per 16 oz.) ([3]; myo-inositol 4%, 240 seconds): 3.23 g per 16 oz.
Dissolved amino acid (g per 16 oz.) ([3]; myo-inositol 4%, 600 seconds): 3.38 g per 16 oz.
Dissolved amino acid (g per 16 oz.) ([3]; myo-inositol 8%, 30 seconds): 1.94 g per 16 oz.
Dissolved amino acid (g per 16 oz.) ([3]; myo-inositol 8%, 60 seconds): 2.45 g per 16 oz.
Dissolved amino acid (g per 16 oz.) ([3]; myo-inositol 8%, 90 seconds): 2.66 g per 16 oz.
Dissolved amino acid (g per 16 oz.) ([3]; myo-inositol 8%, 240 seconds): 3.30 g per 16 oz.
Dissolved amino acid (g per 16 oz.) ([3]; myo-inositol 8%, 600 seconds): 3.48 g per 16 oz.
Leu dissolved at 30 seconds (g/16 oz.) ([4]; 30 seconds): 0.422 ± 0.018 g/16 oz.
Leu dissolved at 60 seconds (% of total Leu) ([4]; 60 seconds): 23.7 ± 1.0 % of total Leu
Leu dissolved at 60 seconds (g/16 oz.) ([4]; 60 seconds): 0.828 ± 0.036 g/16 oz.
SMILES: CC(C)C[C@H](N)C(=O)O [Leucine, L-Leucine]

From patent US11589603B2, “Powdered nutritional product containing branched-chain amino acids and a sugar alcohol” (Abbott Laboratories, priority 2015, dated 2023)
